{
  "source": "patent US20260285903A1",
  "about": "“SYNTHESIZED BIOLOGICALLY ACTIVE COMPOUNDS AND METHODS OF MAKING AND USING” (Georgia State University Research Foundation, Inc., priority 2023, published 2026)",
  "key": {"[1]": {"tested_on": "SARS-CoV-2", "assay": "SARS-CoV-2 infectivity IF assay (Nucleocapsid staining) in Vero cells", "type": "cell-based", "conditions": "Vero cells pre-incubated 60 minutes prior to infection, 24 hours, read-out: EC50 antiviral activity against SARS-CoV-2", "method": "Cells were seeded in complete media at 8000 cells/100 μl/well in four plates: two for the cytotoxicity assay and two for the infectivity assay. After seeding, the plates were incubated at room temperature for 5 minutes for even distribution, and then at 37° C., 5% CO2 until the following day.\nFormulations were prepared at twice the final concentration, and they were diluted to the final desired concentration by an equal volume of virus or media. The initial amounts weighted and the volume in which these were resuspended are recorded.\nThe prepared stocks (0.5 mg/ml) were diluted in 800 μl of infection media to twice the final drug concentration (200 μM). […]\nResidual formaldehyde was quenched with 50 mM Ammonium Chloride, after which cells were permeabilized (0.1% Triton X 100) and stained with an antibody recognizing SARS-CoV2 Nucleocapsid protein (Thermo Fisher MA536271). The primary antibody was detected with an Alexa-488 conjugate secondary antibody (Life Technologies, A21207), and nuclei were stained with Hoechst. Images were acquired on a Cell-Insight CX5 high content platform (Thermo Scientific) using a 4× objective, and percentage infection calculated using CellInsight CX5 software (infected cells/total cells×100).\nNormalized percentages of inhibition were calculated using the following formula: […]"}, "[2]": {"biological_target": "SPHK2 (Homo sapiens, UniProt Q9NRA0)", "sequence (Q9NRA0 whole entry)": "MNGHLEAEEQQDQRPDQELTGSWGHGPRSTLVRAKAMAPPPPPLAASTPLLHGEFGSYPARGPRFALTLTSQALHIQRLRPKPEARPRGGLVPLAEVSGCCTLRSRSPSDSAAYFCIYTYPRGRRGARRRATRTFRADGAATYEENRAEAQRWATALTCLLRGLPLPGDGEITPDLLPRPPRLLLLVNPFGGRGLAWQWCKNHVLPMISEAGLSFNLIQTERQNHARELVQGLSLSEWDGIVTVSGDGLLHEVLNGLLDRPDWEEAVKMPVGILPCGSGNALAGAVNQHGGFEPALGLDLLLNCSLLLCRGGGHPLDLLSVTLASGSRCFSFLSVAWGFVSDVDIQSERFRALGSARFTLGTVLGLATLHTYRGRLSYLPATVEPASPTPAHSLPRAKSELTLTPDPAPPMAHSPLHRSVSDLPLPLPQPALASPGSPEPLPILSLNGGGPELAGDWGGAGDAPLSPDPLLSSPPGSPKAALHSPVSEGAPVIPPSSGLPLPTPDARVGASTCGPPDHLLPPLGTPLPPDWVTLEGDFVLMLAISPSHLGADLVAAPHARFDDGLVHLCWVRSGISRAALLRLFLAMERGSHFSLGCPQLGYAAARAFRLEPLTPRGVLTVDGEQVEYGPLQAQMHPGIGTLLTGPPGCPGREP", "assay": "Radiometric 33P kinase assay, 17 Lipid Kinase Panel", "type": "biochemical", "conditions": "20 μM M13, 10 μM ATP; read-out: inhibition of enzyme activity relative to control", "excerpt": "It was hypothesized that M13 may target kinases to reduce the inflammatory response. Determination and improvement of the selectivity of a compound by screening a large part of the kinome are of pivotal importance in the discovery of M13 signaling pathways for its anti-inflammatory activities. Radiometric assays were used based on the transfer of ^33P-labeled phosphate from ATP to the kinase substrates found in the 376 Wild Type Kinase Panel and 17 Lipid Kinase Panel (Reaction Biology) and a broad kinase selectivity screen for the inhibitory activity of M13 was performed. Briefly, radiometric assays are based on the transfer of 10 μM ^33P-labelled phosphate from ATP to the kinase substrate. […] FIGS. 2A and 2B show the targeted inhibitor effects of M13 on lipid kinases (FIG. 2A) and protein kinases (FIG. 2B)."}, "[3]": {"tested_on": "Tester strain TA98", "assay": "Ames test (bacterial reverse mutation), strain TA98", "type": "cell-based, Salmonella typhimurium", "conditions": "TA98, all tested concentrations", "method": "The mutagenic potential of M13 was assessed using the Ames test. The Ames test, or bacterial reverse mutation test, introduced by Bruce Ames and his group in the early 1970s, is currently widely employed to assess the mutagenic potential of chemical compounds. In this biological assay, several strains of Salmonella ryphimurium carrying mutations in genes responsible for histidine synthesis are used, so these strains cannot produce this critical amino acid. […]\nM13 at concentrations of […] and positive (NaN3; 2-nitrofluorene (NF) and 2-amonoanthracene) and negative (PBS) controls were tested on two tester strains; TA98 reverted from histidine dependence (auxotrophy) to histidine independence (prototrophy) by frameshift mutagens and tester TA100 reverted by mutagens that cause both frameshift and base pair substitution mutations. The colony numbers on the negative, positive control and M13 treated plates were determined by manual counting. The mean number of revertants per plate, the standard deviation, and the mutation factor (i.e., mean number of revertants on the test item plate/mean number of revertants on the vehicle plate) were calculated.\nNext, the mutagenic potential of M13 using a Salmonella typhimurium reverse mutation assay were assessed (Ames test). […]"}, "[4]": {"assay": "Thermodynamic (equilibrium) solubility", "type": "physicochemical", "conditions": "read-out: thermodynamic (or equilibrium) solubility", "excerpt": "The main reason for failure in drug development is poor biopharmaceutical properties, which include low aqueous solubility, chemical instability.\n(§1) The biopharmaceutical properties of the synthesized M13 (5-glutathione-6-shogaol) were characterized."}, "[5]": {"tested_on": "cell cycle control/phosphorylation proteins", "assay": "Cell Cycle Control Phospho Antibody Array on Caco-2/BBe cell lysates", "type": "cell-based, human", "conditions": "24 hours", "method": "The mechanism by which M13 exerts its anti-cancer effects was explored. Cell lysates of Caco-2/BBe cells incubated for 24 hours with free M13, NL, or M13-NL were hybridized on cancer-related protein array membranes (Proteome Profiler™ Human XL Oncology Array), and cell cycle control/phosphorylation profiling protein antibody microarray slides (Cell Cycle Control Phospho Antibody Array)."}, "[6]": {"assay": "Single-dose maximum tolerated dose (MTD) general toxicity study", "type": "in vivo, CD-1 mice", "method": "A general toxicity study was performed by using maximum tolerated dose (MTD) of M13. Eight-week old mice were orally administered 1000 mg/kg or with PBS. On day one and day 7, mice were examined for weight loss and clinical scores were noted. Clinical signs were scored by assessing activity, appearance, and body condition for seven days.\nTo further determine the potential acute toxicity of M13 in vivo, a single-dose maximum tolerated dose (MTD) study of M13 was performed in CD-1 mice. Eight-week-old female mice were orally administered a single dose of M13 (1000 mg/kg) or PBS (as control) on day 0 and subjected to regular water and diet for 7 days."}, "[7]": {"assay": "Incubation with mouse intestinal microsomes (HPLC)", "type": "in vitro ADME", "conditions": "mouse, intestinal microsomes; incubation for 30 minutes; read-out: relative content retained of the input", "excerpt": "as §1"}, "[8]": {"conditions": "CD-1 mice, single oral dose 1000 mg/kg, day 7"}},
  "note": "“Also recorded” adds a separate entry of the source. Where two headings read alike, the source gives them in different places.",
  "data": [
    {"smiles": "CCCCCC(CC(=O)CCc1ccc(O)c(OC)c1)SCC(NC(=O)CCC(N)C(=O)O)C(=O)NCC(=O)O", "note": "(centres unmarked) [M13, 5-glutathione-6-shogaol]", "values": [
      {"measurement": "EC50", "setting": "[1]; Severe acute respiratory syndrome coronavirus 2, Vero", "value": "~36", "unit": "µM"},
      {"measurement": "EC50", "setting": "[1]", "value": 35.8, "unit": "µM"},
      {"measurement": "inhibition at 20 µM", "setting": "[2]", "value": "30 to 45", "unit": "%"},
      {"measurement": "revertant colony numbers", "setting": "[3]", "value": "did not demonstrate an increase in revertant colony numbers; also recorded: did not increase the number of revertant colonies"},
      {"measurement": "solubility thermodynamic", "setting": "[4]; Example 1", "value": 1390, "unit": "µM"},
      {"measurement": "solubility thermodynamic", "setting": "[4]; as printed in Example 6", "value": 1390, "unit": "µM"},
      {"measurement": "CDC25A and phosphorylated CDC25A (p-CDC25A) vs control and NL groups", "setting": "[5]", "value": "down-regulated"},
      {"measurement": "death or differences in physiological indices", "setting": "[6]; CD-1 mice, single oral dose 1000 mg/kg, 7 days, vs PBS", "value": "no significant death or differences"},
      {"measurement": "body weight change, spleen-to-body weight ratio, blood physiological and biochemical indices", "setting": "[6]; [8]", "value": "no significant difference"},
      {"measurement": "pathological signs in the anatomical organs", "setting": "[6]; [8]", "value": "no pathological signs"},
      {"measurement": "MTD at 168 h", "setting": "[6]; mouse, in vivo, single-dose oral, mice", "value": "> 1000", "unit": "mg/kg"},
      {"measurement": "weight loss and clinical signs", "setting": "[6]; oral 1000 mg/kg, seven days of observation, vs PBS", "value": "No significant changes"},
      {"measurement": "white blood cell number, red blood cell number, hemoglobin levels, parameters of hepatic or renal function", "setting": "[6]; oral 1000 mg/kg, vs PBS", "value": "no significant differences"},
      {"measurement": "remaining at 0.5 h", "setting": "[7]", "value": 86, "unit": "%"}
    ]}
  ]
}
